Data as given in US20240150396A1 (The Texas A&M University System, priority 2021, published 2024).
Several values for one entry are separate records, joined by “and”; a condition that tells them apart may be missing. Identical values can stand only once. Like-named read-outs stand apart in the source and are kept apart here.

Key:
[1] = system: T. b. brucei bloodstream forms; conditions: Ref. 25; read-out: EC50 in T. b. brucei BSFs; cited from earlier work
cruzain = cruzain (Trypanosoma cruzi, UniProt P25779); assay: biochemical; conditions: for Ki: pH 7.5
Outline: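 Fluorogenic assay at 25 °C following AMC release (ex 360/em 460 nm), with typically 0.2 nM cruzain and 10% DMSO, at pH 7.5 or 5.5 buffer with 5 mM DTT.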

[2] = system: T. cruzi (Ca-I/72) in C2C12 murine cardiomyoblasts; assay: T. cruzi-infected murine cardiomyoblasts (C2C12); assay type: cell-based, Trypanosoma cruzi
Outline: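 C2C12 mouse cardiomyoblasts infected with T. cruzi Ca-I/72 (10^3 and 10^4 parasites) and exposed to 3-fold serial dilutions of inhibitor from a 10 μM maximum, 48 h at 37° C. After PFA fixation and DAPI staining, automated imaging quantified parasites and host cells, giving EC50 and host CC50.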

[3] = system: SARS-CoV-2 in Vero E6 cells; assay: Anti-CoV-2 activity in Vero E6 cells; assay type: cell-based
[4] = system: SARS-CoV-2 in A549/ACE2 cells; assay type: cell-based; conditions: read-out: Anti-CoV-2 EC50 A549/ACE2 Cells
[5] = system: esterase from porcine liver; assay: Hydrolysis of SMAI prodrugs by porcine esterase; assay type: in vitro ADME; conditions: for half-life of conversion to compound 36: porcine esterase, buffer pH 7.5, 37° C.
Method: Evaluation of SMAI Prodrugs. Esterase from porcine liver was obtained as an ammonium sulfate suspension (Sigma-Aldrich, E2884, 10 U/μL). Compounds 37-39 in 100% (v/v) DMSO solutions were diluted by 10-fold into cruzain assay buffer to make 1 mL-samples, each containing 2 mM compound. For the experimental sample, 4 μL of esterase suspension was added to the reaction mixtures (40 U/mL), which was immediately placed on a low-speed orbital shaker in a 37° C. incubator. In the meantime, a negative control (lacking esterase) and a blank control (buffer only) were included. Aliquots (140 μL) of the reaction mixtures were removed at 0, 15, 30, 60, 120, 180, and 300 min, and reactions were quenched by the addition of MeCN (260 μL). The resulting solution was vortexed, followed by centrifugation to precipitate the protein, and the resulting compounds in the supernatant were analyzed by HPLC-MS with detection at 270 nm.
Rates of de-acylation reactions of SMAI prodrugs 37-39 were obtained upon evaluation of the first-order loss of reagent as fitted to eq. 6, in which A0 and C are the initial and final fraction of unhydrolyzed compound, respectively, k is the pseudo-first order rate constant, from which the half-life was t1/2=ln 2/k.

[6] = system: T. b. brucei bloodstream forms; assay: Growth of axenic cultures of T. b. brucei bloodstream forms (BSFs)
[7] = system: T. cruzi (Ca-I/72) in C2C12 murine cardiomyoblasts; conditions: antichagasic activity, Ref. 55; cited from earlier work
human cathepsin L = human cathepsin L (Homo sapiens (Human), UniProt P07711); assay: Human cathepsin L inhibition, Z-FR-AMC assay; assay type: biochemical; conditions: pH 5.5, 25° C., 10% DMSO; read-out: Ki* Human Cathepsin L
Outline: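 Recombinant human enzymes were assayed at 25°C in sodium acetate pH 5.5 with 1 mM CHAPS, 1 mM EDTA, 5 mM DTT and 10% DMSO final, using the fluorogenic substrate Z-FR-AMC. AMC release (ex 360/em 460 nm) was followed over 30–60 min and converted to rates (μM/s) via an AMC standard curve.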

human cathepsin B = human cathepsin B (Homo sapiens (Human), UniProt P07858); assay: Human cathepsin B inhibition, Z-FR-AMC assay; assay type: biochemical; conditions: pH 5.5, 25° C., 10% DMSO; read-out: Ki* Human Cathepsin B
Method: Recombinant human cathepsins B and L were purchased from Millipore Sigma and used without further treatment. The solid proteins were dissolved into a solution of 50 mM sodium acetate (pH 5.5), 1 mM EDTA, 1 mM CHAPS, 10% (v/v) DMSO, and 5 mM DTT to final concentrations of […] in 20-mL aliquots, and stored at −80° C. until needed. These samples were then diluted into the same buffer to concentrations of −100 nM, and these dilutions were stored at 4° C. and used daily until depletion.
For assays of cathepsin L and B, inhibitors were evaluated in 0.25-mL reaction mixtures containing a buffer of sodium acetate (pH 5.5), 1 mM CHAPS, 1 mM Na2EDTA, and 5 mM DTT at 25° C. The fluorogenic substrate Cbz-Phe-Arg-7-amino-4-methyl-coumarin (Z-FR-AMC) was dissolved in 100% DMSO, as were all inhibitors, and aliquots of both substrates and inhibitors were added to reaction mixtures to final concentrations of DMSO of 10% (v/v). […] Formation of the fluorescent product AMC was monitored over 30-60-minute time courses for reaction mixtures in 96-well black microplates (Corning Costar®). Rates of peptidolysis of the dipeptide-AMC substrate(s) were measured on either a SpectraMax M5 (Molecular Devices) or a Synergy HTX (Biotek, Wisnooki, VT) microplate reader with λex=360 nm, λem=460 nm in ≥8-sec intervals. Control samples excluded substrate. The measured relative fluorescence units (RFUs) of generated AMC were converted to reaction rates of μM/s by use of a standard curve of known AMC concentrations obtained for both plate readers.

human cathepsin S = human cathepsin S (Homo sapiens (Human), UniProt P25774); assay: Human cathepsin S inhibition; assay type: biochemical; conditions: pH 5.5, 25° C., 10% DMSO
Method: Cruzain inhibitors were added at seven concentrations and one fixed concentration of Cbz-Phe-Arg-AMC, and time courses of AMC formation were analyzed as with cruzain.

[8] = system: T. b. brucei procyclic forms; assay: Growth of axenic cultures of T. b. brucei procyclic forms (PCFs); assay type: cell-based, Trypanosoma brucei brucei; conditions: Trypanosoma brucei, axenic culture; read-out: EC50 T. b. brucei PCF
human dermal fibroblasts = assay: Human cell toxicity, resazurin viability; assay type: cell-based; conditions: human dermal fibroblasts; read-out: Human Cell Cytotoxicity CC50
Method: Primary human dermal fibroblast (HDF) cells were used to evaluate human cell toxicity of cruzain inhibitors. HDF cells were plated in a 384-well plate at 2400 cells per well (62,000 cells mL^−1). Inhibitors in 100% DMSO were added in duplicate to final concentrations of 0.001-0.1 mM and 1% DMSO (v/v) with 1% DMSO as a control sample, and cells were cultured at 37° C. for 48 h, followed by the addition of resazurin. Cell viability was then assessed by reading of fluorescence (excitation/emission: 544 nm/590 nm) after an additional 24 h of incubation.

[9] = Host cell cytotoxicity in the T. cruzi infection model; assay type: cell-based, mouse; conditions: mouse; host cardiomyoblasts; read-out: C2C12 Cytotoxicity CC50
Method: The plates were incubated at 37° C. for 48 h, and the wells were fixed with 2% paraformaldehyde in PBS and stained with 5 μg mL-1 4,6-diamidino-2-phenylindole. After at least 30 min of incubation at room temperature in the dark, the plates were read in an automated microscope, ImageXpress Micro XL (Molecular Devices), and the images were analyzed by custom-built software to quantify and assess viability of the parasites, as well as the host cells independently. The compilation of data was used to calculate the antiparasitic activity (EC50) and host cytotoxicity (CC50).
T. cruzi infection was evaluated in C2C12 murine cardiomyoblast cells. […] The wells were fixed with 2% PFA in PBS, and stained by 5 μg/ml of DAPI. After >30 min of incubation in a dark environment, the plates were read on an ImageXpress MicroXL microscope (Molecular Devices). The images were analyzed to quantify parasites as well host cells.

[10] = Thiolation of inhibitors with glutathione, LCMS; assay type: physicochemical; conditions: 1 mM glutathione, 0.5 mM compound, Tris pH 8.0, 10% DMSO, room temperature
Method: Samples were analyzed by HPLC-MS (as described above) by injecting 0.01 mL aliquots onto a Luna […] C18(2) 100 Å, 4.6 mm, 50 mm column (Phenomenex) using the HPLC method described in the chemistry section at 0-6 h time points. […] Integration of the chromatographic peaks of the inhibitors and their GSH adducts at each time point was used to determine the rate of GSH adduct formation.

CYPs 3A4, 2D6 and 2C9 [11] = assay: Stability of acetal prodrugs to CYPs; conditions: CYP 3A4, 2D6, 2C9, NADPH-regenerating system, up to 4 h
CYPs 3A4, 2D6 and 2C9 [12] = conditions: human, 4 h, 0.5 mM, pH 7.5
[13] = Detection of aldehyde content using phenylhydrazine; assay type: physicochemical; conditions: 1 mM phenylhydrazine
Method: Detection of Aldehyde Content Using Phenylhydrazine. In a 96-well clear microplate, compounds 52 and 36 in DMSO solutions, or pure DMSO as a control, were diluted into the above NMR buffer without addition of DTT to make 250 μL-samples, each containing 0.2 mM of compounds and 10% DMSO (v/v). Upon addition of 1M phenylhydrazine (0.25 μL), the formation of phenylhydrazone in these wells were continuously monitored for 2 hours by measuring UV absorbance at the maximal wavelength of 282 nm.

[14] = apparent tight-binding inhibition constant, 25° C., read-out: Ki*
[15] = obtained >10 minutes following initiation of reaction by addition of enzyme, read-out: Ki* Cruzain
[16] = C2C12 murine cardiomyoblasts, read-out: EC50 T. cruzi-infected cardiomyoblasts
[17] = read-out: EC50 T. b. brucei BSF, axenic culture

Sequence of cruzain (P25779 123-467 limits assumed): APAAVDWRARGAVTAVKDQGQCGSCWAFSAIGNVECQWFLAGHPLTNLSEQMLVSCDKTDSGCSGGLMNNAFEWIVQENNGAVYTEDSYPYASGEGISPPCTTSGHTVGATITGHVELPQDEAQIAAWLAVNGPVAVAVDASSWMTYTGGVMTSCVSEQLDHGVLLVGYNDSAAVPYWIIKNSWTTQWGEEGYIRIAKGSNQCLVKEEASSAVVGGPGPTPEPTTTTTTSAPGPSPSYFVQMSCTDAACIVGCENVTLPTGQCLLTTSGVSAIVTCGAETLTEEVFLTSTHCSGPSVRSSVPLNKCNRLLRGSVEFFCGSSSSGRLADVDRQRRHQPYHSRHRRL
Sequence of human cathepsin S (P25774 115-331): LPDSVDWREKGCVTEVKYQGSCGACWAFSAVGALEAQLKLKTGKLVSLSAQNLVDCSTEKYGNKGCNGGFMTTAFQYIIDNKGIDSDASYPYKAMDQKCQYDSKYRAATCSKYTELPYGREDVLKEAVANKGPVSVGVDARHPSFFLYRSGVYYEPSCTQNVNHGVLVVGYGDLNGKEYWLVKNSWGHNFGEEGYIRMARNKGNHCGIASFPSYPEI
Sequence of human cathepsin L (P07711 114-333): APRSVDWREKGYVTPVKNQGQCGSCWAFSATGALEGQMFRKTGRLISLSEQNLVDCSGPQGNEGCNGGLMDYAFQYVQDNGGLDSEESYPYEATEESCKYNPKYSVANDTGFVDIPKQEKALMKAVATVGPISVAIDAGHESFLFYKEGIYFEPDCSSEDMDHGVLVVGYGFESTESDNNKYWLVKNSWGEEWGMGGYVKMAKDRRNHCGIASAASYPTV

N=C(N)c1ccc(/N=N/Nc2ccc(C(=N)N)cc2)cc1 [diminazene]
EC50 [1]: 0.99 µM

CC(=O)OC1Oc2ccccc2C[C@@H]1NC(=O)[C@H](Cc1ccccc1)NC(=O)N1CCN(C)CC1 (stereo partly drawn) [Compound 37, (3S)-3-((S)-2-(4-methylpiperazine-1-carboxamido)-3-phenylpropanamido)chroman-2-yl acetate]
Ki (cruzain; [14]): 1 µM | Ki (cruzain; [15]): ~1 µM | EC50 [2, 16]: 13 ± 2 µM | EC50 [3]: 2.5 µM | EC50 [4]: 0.31 µM | degradation in buffer without esterase ([5]; over 3 h, pH 7.5): about 10% | half-life of conversion to compound 36 [5]: 48 min | EC50 [6, 17]: 3.7 µM

O=C(Cn1ccnc1[N+](=O)[O-])NCc1ccccc1 [benznidazole, reference compound]
EC50 ([2]; Trypanosoma cruzi, C2C12, read-out: EC50 T. cruzi-infected cardiomyoblasts): 4 ± 2 µM | LD50 [7]: 1.5 µM

CCC(=O)OC1Oc2ccccc2C[C@@H]1NC(=O)[C@H](Cc1ccccc1)NC(=O)N1CCN(C)CC1 (stereo partly shown) [Compound 38]
Ki (cruzain; [15]): > 5 µM | EC50 [3]: 2.5 µM | EC50 [4]: 0.62 µM | half-life of conversion to compound 36 [5]: 24 min | EC50 [6, 17]: 3.1 ± 0.2 µM

O=C(N[C@@H](Cc1ccccc1)C(=O)N[C@H](/C=C/c1ncccn1)Cc1ccccc1)OCc1ccccc1 [Compound 7, Benzyl ((S)-1-Oxo-3-phenyl-1-(((S,E)-1-phenyl-4-(pyrimidin-2-yl)-but-3-en-2-yl)amino)propan-2-yl)carbamate]
Ki (cruzain; Ki* Cruzain, obtained >10 minutes following initiation of reaction by addition of enzyme): 0.12 to 0.4 µM and 0.31 µM | Ki (cruzain; apparent initial inhibition constant, 25° C., read-out: Ki): 28 ± 1 µM | Ki (cruzain; [14]): 0.38 µM | k4 (cruzain; conversion of EI* back to EI, from kobs replot or recovery after preincubation and dilution): 0.0018 ± 0.0003 s⁻¹ | Ki (human cathepsin L): 1.1 ± 0.1 µM | Ki (human cathepsin B): 32 ± 3 µM | Ki (human cathepsin S): 0.37 ± 0.02 µM | EC50 [8]: 5 to 15 µM | CC50 (human dermal fibroblasts): > 100 µM | CC50 at 48 h [9]: > 10 µM | Rate of Thiolation, k [10]: Negligible

CC(C)C(=O)OC1Oc2ccccc2C[C@@H]1NC(=O)[C@H](Cc1ccccc1)NC(=O)N1CCN(C)CC1 (stereo partly shown) [Compound 39]
Ki (cruzain; [15]): > 5 µM | EC50 [2, 16]: 14 ± 6 µM | EC50 [3]: 4 µM | EC50 [4]: 0.31 µM | half-life of conversion to compound 36 [5]: 16 min | EC50 [6, 17]: 4 ± 0.2 µM

CC(C)OC1Oc2ccccc2C[C@@H]1NC(=O)[C@H](Cc1ccccc1)NC(=O)N1CCN(C)CC1 (stereo partly shown) [Compound 41]
Ki (cruzain; [14]): > 5 µM | Ki (cruzain; [15]): > 5 µM | EC50 [3]: > 20 µM | EC50 [4]: 5 µM | transformation to 36 by CYPs (CYPs 3A4, 2D6 and 2C9 [11]): no transformation to 36 was observed | EC50 [6, 17]: 14 ± 0.9 µM

CCOC1Oc2ccccc2C[C@@H]1NC(=O)[C@H](Cc1ccccc1)NC(=O)N1CCN(C)CC1 (stereo partly drawn) [Compound 40, N-((2S)-1-(((3S)-2-ethoxychroman-3-yl)amino)-1-oxo-3-phenylpropan-2-yl)-4-methylpiperazine-1-carboxamide]
transformation to 36 by CYPs (CYPs 3A4, 2D6 and 2C9 [12]): no transformation to 36 was observed | EC50 ([6]; Trypanosoma brucei, read-out: EC50 T. b. brucei BSF, axenic culture): 11 to 14 µM | EC50 [6, 17]: 12 ± 0.1 µM

CN1CCN(C(=O)N[C@@H](Cc2ccccc2)C(=O)N[C@H](C=O)CCc2ccccc2)CC1 [Compound 52, 4-Methyl-N—((S)-1-oxo-1-(((S)-1-oxo-4-phenylbutan-2-yl)amino)-3-phenylpropan-2-yl)piperazine-1-carboxamide]
residence time (cruzain): 45 min | Ki (cruzain; [15]): 0.0005 ± 0.0002 µM | kobs of phenylhydrazone formation ([13]; 0.2 mM compound): (2.61±0.05)×10^−4 s^−1 | free aldehyde by phenylhydrazine treatment ([13]; aqueous buffer, 2 hours): completely converted to phenylhydrazone
